Reference: patent US20240082342A1, “PEPTIDE THERAPEUTICS FOR INCREASING LUNG CELL VIABILITY” (BOARD OF REGENTS, THE UNIVERSITY OF TEXAS SYSTEM, priority 2018, published 2024)
Entries after “also recorded” stand apart in the source; their conditions may differ.

Assays:
WT mice with CS-LI = assay: Chronic CS/TSE lung injury in WT mice treated by nebulization or IP injection; assay type: in vivo, mouse
[1] = test system: A2Cs of miR-34a^fl/fl and miR-34a^cKO mice; assay: Tobacco smoke exposure of miR-34a fl/fl and miR-34a cKO mice; assay type: in vivo, mouse; conditions: for telomerase enzyme activity: TS; for telomere shortening (qPCR): 20 weeks TS
Procedure: To analyze the effect of cigarette smoke, mice were exposed to passive smoke from 40 research cigarettes over a 2-hour period once (2 h) or twice (4 h) daily for 5 days/week for 20 weeks (˜90 mg/m^3 total solid particulates) using a mechanical smoking chamber (Teague Enterprises, Davis, CA). Control mice were exposed to ambient air. At the 18th week, peptide treatment at a dosage of 30 μg/20 g body weight was initiated and continued on a daily basis for the next 14 days. At the end of the experiment, the mice were euthanized and used for the experiments.
To test the effect of chronic TS exposure induced lung injury, these mice were exposed to passive TS from 40 research cigarettes over a 4 h period 5 days/week for 20 weeks (˜90 mg/m3 total solid particulates) using a mechanical smoking chamber (Teague Enterprises, Davis, CA) as described earlier. (Bhandary et al, 2015). Control mice were kept in ambient air. After sixteen weeks of daily passive TS exposure, mice with TS exposure injury were treated with CSP7 at a dosage of 1.5 mg/kg body weight daily 5 days/week for the next four weeks. These mice were continued with daily exposure of 4 h of TS during CSP7 treatment. At the end of the experiment (after 20 weeks of TS exposure), the mice were euthanized, and lungs were utilized for further analyses. To expand the local delivery options of CSP7 to directly treat the damaged lung by air-jet milling for dry powder inhalation (DPI). Mice exposed to TSE were treated with CSP7 using a rotating brush generator for 15 min daily for 7 days. Fourteen days later, BLM mice were subjected to daily inhalation of micronized CSP7 (0.05 mg/kg/d) DP through air-jet-milling for seven consecutive days using a rotating brush exposure system. The rotating brush exposure system gave a consistent minimal chamber concentration of 0.1 mg/L. In order to match dosing of DP inhalation, animal exposure times were adjusted to approximately 15 minutes and an estimated dose of 0.05 mg/kg/d or 1.00 microgram/lung was administered.
Inducible conditional knockout (miR-34a^cKO) mice lacking miR-34a expression in A2ECs were generated by crossing miR-34a^fl/fl mice with SP-C^Cre/mTmG mice (FIG. 62A). RNA from A2ECs of miR-34a^fl/fl or miR-34a^cKO mice treated with tamoxifen were analyzed for miR-34a. […] After 20 weeks, A2ECs were isolated from these mice and analyzed for changes in miR-34a. […] A2ECs from miR-34a^fl/fl and miR-34a^cKo mice were next isolated and tested the lysates for changes in p53 and PAI-1 expression, and apoptosis. PTS induced p53 and PAI-1 expression in A2ECs of miR-34a^fl/fl mice. These changes were associated increased of A2EC apoptosis and senescence. […] These mice also resisted A2ECs apoptosis or senescence (FIG. 62C).

WGIDKAFFTTSTVTYKWFRY [CP, scrambled control peptide with the same amino acid composition as CSP, reference compound]
H&E alveolar damage / mean linear intercept (MLI) (WT mice with CS-LI; Neb and IP): continued to show 479 alveolar damage
IHC MUC5AC and HDAC6 staining in lung sections (WT mice with CS-LI; Neb or IP): not evident
co-localization of MUC5AC and HDAC6 in lung sections (WT mice with CS-LI; Neb or IP): Increased staining and co-localization
telomerase enzyme activity ([1]; miR-34a^fl/fl mice): little effect

FTTFTVT (listed as Homo sapiens) [CSP7, heptapeptide fragment of the caveolin-1 scaffolding domain peptide CSP]
Ac-Tub staining in tracheal sections (WT mice with CS-LI; 20 weeks TSE/CS): reversed in CSP7 treated WT mice; also recorded: improved
PAI-1 expression in AT2 cells (WT mice with CS-LI; CS-LI WT mice): reduced
total, acetylated, serine phosphorylated p53, cleaved caspase-3, β-galactosidase in AT2 cells (WT mice with CS-LI; CS-LI WT mice, IP): markedly suppressed
MUC5AC and HDAC6 mRNA in TECs (WT mice with CS-LI; CS-LI mice): significantly reduced
MUC5AC, HDAC6, FOXA3, CAV1 and FOXA2 mRNA in lung (WT mice with CS-LI; CS-LI mice): significant reduction in MUC5AC, HDAC6, FOXA3, and CAV1 mRNA
PP2A and CIP2A mRNA in lung (WT mice with CS-LI; CS-LI mice): reversed
macrophages in bronchoalveolar lavage (WT mice with CS-LI; CS-LI mice): significantly reduced
number of ciliated (Ac-Tub positive) tracheal epithelial cells (WT mice with CS-LI; MTEC/TECs isolated from treated mice): reversal; also recorded: significantly reversed; also recorded: increased the number of ciliated TECs
H&E alveolar damage / mean linear intercept (MLI) (WT mice with CS-LI; Neb and IP): reversed; also recorded: significantly (P<0.0001) reduced
IHC Ac-Tubulin, LC3 (and CAV1) in lung sections (WT mice with CS-LI; Neb and IP): reversed in CSP7 (Neb and IP) treated WT mice
IHC Cav1 expression in lung sections (WT mice with CS-LI; Neb and IP): overcome
IHC MUC5AC and HDAC6 staining in lung sections (WT mice with CS-LI; Neb or IP): reversed; also recorded: remarkably improved; also recorded: markedly reduced
MUC5AC, HDAC6, SPDEF, LC3, FOXA2, Ac-tubulin in lung homogenates (WT mice with CS-LI; Neb or IP): alleviated TSE MUC5AC and HDAC6 expression; also recorded: reversed
co-localization of MUC5AC and HDAC6 in lung sections (WT mice with CS-LI; Neb or IP): reversed; also recorded: markedly reduced in those treated with CSP7
CAV1, p53 and PAI-1 in lung homogenates (WT mice with CS-LI; via airways or systemically): marked inhibition of CAV1, p53, and PAI-1
miR-34a expression in A2ECs (qRT-PCR) ([1]; WT or miR-34a^fl/fl mice, 20 weeks PTS): reduced miR-34a expression
telomere shortening (qPCR) ([1]; WT or miR-34a^fl/fl mice): protected from telomere shortening; also recorded: significant protection against TS-induced telomere shortening
miR-34a expression in A2ECs ([1]; miR-34a^cKO mice, 20 weeks PTS): minimal effect
telomere shortening (qPCR) ([1]; miR-34a^cKO mice): minimal effect
telomerase enzyme activity ([1]; miR-34a^cKO mice): did not upregulate telomerase activity; also recorded: limited effects on baseline telomerase activity
p53, PAI-1, A2EC apoptosis and senescence ([1]; miR-34a^fl/fl mice, PTS): inhibited p53, PAI-1 and A2EC apoptosis and senescence
telomerase enzyme activity ([1]; miR-34a^fl/fl mice): significant upregulation; also recorded: reversed
